What was measured:
[1] = tested on: MRSA bacteria; test: MRSA bacterial growth and biofilm formation in broth tubes, crystal violet stain (Example 1, FIG. 2); format: cell-based, Methicillin-resistant Staphylococcus aureus; conditions: about 5000 CFU/mL, 16-20 hours, 2 mL broth, 35±2° C., CP55,940 and LEA at 30 μm; for MRSA biofilm formation: crystal violet, qualitative
Description: (§1) The broth inoculum was prepared from 18-24 hours old colonies grown on standard agar plates. Approximately four of the fresh colonies were swiped with a sterile cotton Q-tip and then suspended in saline by immersion and light swirling. The turbidity was adjusted to equal that of a 0.5 McFarland turbidity standard using a spectrophotometer (600 nm). The amount corresponded to about 1.5×10^8 CFU/mL, where CFU stands for colony-forming units, and is equivalent to an absorbance at 600 nm equal to 0.132 or a percentage transmission equal to 74.3. […] Sterile 4 mL polystyrene tubes (12×75 mm) with caps were used for this purpose.
MRSA bacteria (about 5000 CFU/mL) were allowed to grow for 16-20 hours in 2 mL broth at 35±2° C. in the presence or absence of various experimental compounds or antibiotics. The amount of biofilm was visualized qualitatively after being stained with crystal violet. Biofilm attached to the side of the tube was stained purple. The compounds CP55,940, LEA, and capsaicin were all tested at 30 μm. In the negative control, no compounds were added. The vehicle controls were made up of the appropriate dilution of the different solvent used to dissolve the experimental compounds, including methanol (MeOH), ethanol (EtOH) or dimethylsulfoxide (DMSO). The experimental compounds tested included CP55,940, noladin ether, O-2050, and linoleyl ethanolamide. High concentrations of the antibiotics zeocin and ampicillin served as positive antimicrobial controls. […] The no bacteria group contained only media and no bacteria, and served as another control.

[2] = tested on: gram-positive bacteria, including Streptococcus agalactiae, Enterococcus faecalis, Staphylococcus epidermidis, and prominent MRSA strains; test: Growth and biofilm formation of gram-positive strains, crystal violet stain quantified at 600 nm (Example 2, FIG. 3); format: cell-based; conditions: 30 μM, overnight, 35±2° C.; for growth of gram-positive bacteria, including MRSA: 2 mL broth; for biofilm formation of gram-positive bacteria, including MRSA: crystal violet stain solubilized, 600 nm
Description: as §1, with “efficacy of the compounds were again tested against different strains of gram-positive bacteria, including Streptococcus agalactiae, Enterococcus faecalis, Staphylococcus epidermidis, and prominent MRSA (hospital-acquired and community-acquired) strains. Broth” for “broth”
The bacteria were allowed to incubate overnight in 2 mL broth at 35±2° C. in the presence or absence of various experimental compounds or antibiotics. The amount of biofilm was visualized qualitatively, then stained with crystal violet. Biofilm attached to the side of the tube was stained purple. After staining, the tubes were decanted and rinsed, leaving stained biofilm adhering to the tubes. Next, the stain was solubilized and mixed with ethanol (EtOH) or dimethylsulfoxide (DMSO). The turbidity of the so lubilized stain, or lack thereof, was then quantified in a spectrophotometer (600 nm). In the broth only sample, no bacteria were added. In the negative controls, no compounds were added. The vehicle controls were made up of the appropriate dilution of the different solvent used to dissolve the experimental compounds, including ethanol (EtOH) or dimethylsulfoxide (DMSO). The experimental compounds tested included 30 μM of CP55,940, 30 μM of O-2050, 30 μM of linoleyl ethanolamide, 30 μM of no ladin ether, and 30 μM of anandamide (natural product 2). High concentrations of silver nitrate (1000 μM) and vancomycin (50 μg/mL) served as positive antimicrobial controls.

[3] = biological target: mammalian CB1 receptors (Homo sapiens, UniProt P21554); conditions: cited from earlier work
mammalian CB1 receptors, sequence (P21554 whole entry): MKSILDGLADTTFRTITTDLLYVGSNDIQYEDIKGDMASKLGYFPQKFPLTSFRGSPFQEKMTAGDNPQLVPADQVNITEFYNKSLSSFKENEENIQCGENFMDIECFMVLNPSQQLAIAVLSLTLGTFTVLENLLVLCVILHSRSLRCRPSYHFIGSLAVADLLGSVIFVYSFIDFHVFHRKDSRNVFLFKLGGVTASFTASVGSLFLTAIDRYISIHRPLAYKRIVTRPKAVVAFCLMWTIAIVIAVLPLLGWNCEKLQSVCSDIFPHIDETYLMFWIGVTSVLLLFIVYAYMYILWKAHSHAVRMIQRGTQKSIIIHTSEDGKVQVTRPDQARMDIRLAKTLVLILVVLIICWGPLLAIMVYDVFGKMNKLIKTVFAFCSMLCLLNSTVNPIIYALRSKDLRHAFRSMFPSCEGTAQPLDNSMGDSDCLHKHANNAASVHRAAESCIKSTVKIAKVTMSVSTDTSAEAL

[4] = biological target: mammalian CB2 receptors (Homo sapiens, UniProt P34972); conditions: cited from earlier work
mammalian CB2 receptors, sequence (P34972 whole entry): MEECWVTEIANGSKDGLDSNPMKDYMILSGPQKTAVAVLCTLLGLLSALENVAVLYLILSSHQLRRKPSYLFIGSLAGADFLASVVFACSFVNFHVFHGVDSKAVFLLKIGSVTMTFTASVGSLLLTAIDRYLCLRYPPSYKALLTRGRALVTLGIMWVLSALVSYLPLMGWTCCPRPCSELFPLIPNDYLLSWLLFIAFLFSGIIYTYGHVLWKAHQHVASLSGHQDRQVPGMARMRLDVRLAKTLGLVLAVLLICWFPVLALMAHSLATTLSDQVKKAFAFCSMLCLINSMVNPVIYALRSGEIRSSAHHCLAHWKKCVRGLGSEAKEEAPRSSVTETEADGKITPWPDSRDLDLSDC

Row | SMILES | MRSA growth [1] | MRSA biofilm formation [1] | growth of gram-positive bacteria, including MRSA [2] | biofilm formation of gram-positive bacteria, including MRSA [2] | affinity for CB1 receptor [3] | affinity for CB2 receptor [4]
1 | CCCCCCC(C)(C)c1ccc([C@@H]2C[C@H](O)CC[C@H]2CCCO)c(O)c1 [CP55,940, (−)-cis-3-[2-Hydroxy-4-(1,1-dimethylheptyl)phenyl]-tran s-4-(3-hydroxypropyl)cyclohexanol] | prevent | prevent | prevent | prevent | high affinity | high affinity
2 | CC1=CC[C@@H]2[C@@H](C1)c1c(O)cc(CC#CCCCNS(C)(=O)=O)cc1OC2(C)C [Compound O-2050] | prevent | prevent | prevent | prevent |  | 
3 | CN[C@H]1C[C@@H](N)[C@H](O)[C@@H](O[C@@H]2O[C@H](CO)[C@H](O)[C@@H]3OC4(O[C@H]23)O[C@H]([C@@H](N)CO)[C@H](O)[C@H](O)[C@H]4O)[C@@H]1O (stereo partly shown) [Hydromycin B, reference compound] | Relatively ineffective |  |  |  |  | 
4 | CCCCC/C=C\C/C=C\CCCCCCCC(=O)NCCO [LEA, N-(2-hydroxyethyl)-9Z,12Z-octadecadienamide] | prevent | prevent | prevent | prevent | poor affinity | poor affinity
5 | CCCCC/C=C\C/C=C\C/C=C\C/C=C\CCCCOC(CO)CO [noladin ether, 2-[(5Z,8Z,11Z,14Z)-eicosatetraenyloxy]-1,3-propanediol] | prevent | prevent |  |  |  | 

Source: patent US20110301078A1, “PREVENTION OF BACTERIAL GROWTH AND BIOFILM FORMATION BY LIGANDS THAT ACT ON CANNABINOIDERGIC SYSTEMS” (priority 2008, published 2011)
